Results published in patent US11813239B2, “Compositions and methods for improving cardiac structure and/or function” (Wisconsin Alumni Research Foundation, priority 2020, dated 2023).
Entries after “also recorded” stand apart in the source; their conditions may differ.

What was measured:
[1] = tested on: adult cardiomyocytes; test: Histology after adult MI (TTC, TUNEL, pH3, Aurora B, BrdU, nucleation, γH2AX, trichrome, WGA, coronary casting, PECAM/α-SMA); assay type: in vivo, mouse
[2] = tested on: tricarboxylic acid (TCA) cycle and glucose metabolism; test: LC-MS metabolite analysis of adult hearts
Description: Saline was used as a vehicle control for all experiments. […] Adult mice were injected intraperitoneally daily with either saline or 100 mg/kg dimethyl malonate post-MI for 2 or 4 weeks.
To analyze intracellular metabolites, metabolites were extracted with cold liquid chromatography-mass spectrometry (LC-MS) grade 3/1 butanol/methanol (v/v). The methanol layer was transferred to a new vial and samples were dried under nitrogen flow and subsequently dissolved in LC-MS grade water for LC-MS analysis methods. Protein pellets were removed by centrifugation. Samples were analyzed using a Thermo Q-Exactive mass spectrometer coupled to a Vanquish Horizon Ultra-High Performance Liquid Chromatograph (UHPLC). Metabolites were separated on a C18 (details below) at a 0.2 ml per min flow rate and 30° C. column temperature. […] The identification of metabolites reported was based on exact m/z and retention times, which were determined with chemical standards. Data were analyzed with Maven. Relative metabolite levels were normalized to internal standard Tryptophan (^13C11) and expressed relative to levels measured in the control group.
To determine whether SDH inhibition regulates cardiomyocyte cell cycle activity by modulating succinate levels, we measured the levels of intracellular succinate by liquid chromatography-mass spectrometry (LC-MS). […]

[3] = dimethyl malonate 100 mg/kg daily for 2 weeks, 28 days post-MI
[4] = dimethyl malonate 100 mg/kg daily for 2 weeks, 28 days post-MI, vs controls
[5] = dimethyl malonate 100 mg/kg daily, 14 days post-MI

COC(=O)CC(=O)OC [Malonate, dimethyl malonate]
fibrosis (trichrome staining, quantification) ([1]; dimethyl malonate 100 mg/kg daily for 2 weeks, 14 days post-MI, vs controls, difference was not significant): trend for reduction in fibrosis
capillary density and vascular smooth muscle cells in the infarct zone (PECAM, α-SMA) [1, 3]: significant increase in capillary density and vascular smooth muscle cells
scar size (quantification of fibrosis) [1, 3]: significant reduction of scar size
cardiomyocyte size (WGA staining) [1, 4]: significant reduction in cardiomyocyte size
coronary artery formation / revascularization of the infarct zone (coronary casting) [1, 4]: Re-vascularization in the infarcted zone was also induced; also recorded: remarkable formation of coronary arteries below the ligature site
heart weight to body weight ratios ([1]; dimethyl malonate 100 mg/kg daily for 2 weeks, 28 days post-MI, vs saline): No significant differences
cardiac structure (trichrome staining) ([1]; dimethyl malonate 100 mg/kg daily for 2 weeks, 28 days post-MI, vs saline controls): complete restoration of the myocardium with minimal fibrosis; also recorded: remarkable restoration of the myocardium with minimal fibrosis
number of apoptotic cardiomyocytes (TUNEL staining) ([1]; dimethyl malonate 100 mg/kg daily, 3- or 7-days post-MI, vs saline): no difference in the number of apoptotic cardiomyocytes
BrdU incorporation in cardiomyocytes [1, 5]: significant increase in 5-bromodeoxyuridine (BrdU) incorporation
number of binucleated cardiomyocytes [1, 5]: significant decrease in the number of binucleated cardiomyocytes
number of mononucleated cardiomyocytes [1, 5]: remarkable increase in the number of mononucleated cardiomyocytes
cardiomyocytes with γH2AX foci (DNA damage) ([1]; dimethyl malonate 100 mg/kg daily, vs controls): significant decrease in the number of cardiomyocytes with γH2AX foci
non-viable myocardium, myocardial necrosis (TTC viability stain) ([1]; dimethyl malonate 100 mg/kg from within an hour post-MI, daily, 3 days post-MI, vs saline): no significant difference
gross morphology of the heart ([1]; dimethyl malonate 100 mg/kg intraperitoneally for two weeks, 28 days post-MI, vs controls): more muscularized ventricle
vascular density in the infarct zone (MICROFIL casting, ImageJ region of interest) ([1]; malonate, 28 days post-MI, vs controls): significant increase in vascular density in the infarct zone
intracellular succinate levels in the heart (LC-MS) ([2]; adult MI, dimethyl malonate 100 mg/kg daily, 14 days post-MI): significant increase in succinate levels
succinate levels (LC-MS metabolomics) ([2]; adult mice treated for 2 weeks with dimethyl malonate, vs saline): increase in succinate levels
